Test results taken from patent US20250282764A1, “IMIDAZOLE HETEROCYCLE BASED COMPOUNDS AND METHODS OF TREATING CANCER” (King Abdulaziz University, priority 2024, published 2025).

How the values were obtained:
[1] = Stability in mouse plasma; assay type: in vitro ADME; conditions: for Mouse Plasma Stability t1/2: 1 μM, 37° C.
Description: Stability in mouse plasma was tested as follows. The assay was conducted at 37° C. in triplicate. Test compound or procaine (positive control) was tested at a final concentration of 1 μM in either 2.5% DMSO/CD-1 mouse plasma (Innovative Research, Novi, MI; sodium heparin added as anticoagulant; pH adjusted to 7.4 with 2N HCl on day of use) or 2.5% DMSO/PBS (pH 7.4:136.9 mM NaCl, 2.68 mM KCl, 8.1 mM Na2HPO4, 1.47 mM KH2PO4, 0.9 mM CaCl2, 0.49 mM MgCl2). At seven time points, reaction mixture aliquots were transferred to 96-shallow well stop plates on ice containing acetonitrile with 0.1 μM propafenone. Samples were analyzed by LC/MS/MS on a Waters Xevo TQ instrument as described above using positive electrospray ionization. Assay acceptance criteria was 20% for all standards and 25% for the LLOQ. GraphPad® Prism v. 5.04 was used for nonlinear fitting of data to generate t1/2 values.

[2] = tested on: NB4; assay: CellTiter-Blue cell viability assay, NB4; assay type: cell-based, human; conditions: 48 h, mean of triplicates
Description: (§1) Cell culture of leukemia cell lines model was performed as follows. HL60, K562, and NB4 cell lines were purchased from CLS Cell Line Service GmbH (Eppelheim, Germany). MV4-11 cell line was purchased from American Type Culture Collection (ATCC; Virginia, USA). KG1α also referred to as KG1a was a gift from Prof. Ghulam Mufti (King College London, UK). Kasumi-1 cell line was purchased from Nawah Scientific (Cairo, Egypt). All cell lines were cultured in Roswell Park Memorial Institute-1640 (RPMI-1640) culture medium supplemented with 10% fetal bovine serum (FBS) (Thermo Fisher Scientific) and 0.1% ciprofloxacin (10 μg/ml; Cipla Limited; Mumbai, India). Cells were maintained in a humidified incubator at 37° C. with 5% CO2.
(§2) Cell viability was determined using the CellTiter-Blue® Cell Viability Assay kit (Promega, Madison, WI, USA). Approximately […] were plated in 96 well plate in the presence of increasing drug concentration in triplicate and incubated for 48 h at 37° C. in a humidified incubator. After the incubation period, 20 μL of the cell titer blue reagent was added to each well and the plate was incubated for additional 2 h for the development of florescence. Florescence was measured at 540Ex/590Em on SpectraMax i3 Multi-Mode Microplate Reader (Molecular Devices, LLC; San Jose, CA, USA). […]

[3] = tested on: K562; assay: CellTiter-Blue cell viability assay, K562; assay type: cell-based, human; conditions: 48 h, mean of triplicates
Description: as §1, §2

[4] = tested on: HL60; assay: CellTiter-Blue cell viability assay, HL60; assay type: cell-based, human; conditions: 48 h, mean of triplicates
Description: as §1, §2

[5] = tested on: KG1a; assay: CellTiter-Blue cell viability assay, KG1a; assay type: cell-based, human; conditions: 48 h, mean of triplicates
Description: as §1, §2

[6] = tested on: HT29; assay: CellTiter-Blue cell viability assay, HT29; assay type: cell-based, human; conditions: 50% cell viability vs untreated, mean of triplicates
Description: Cell culture of colorectal carcinoma cell lines was performed as follows. DLD-1, HCT116, and HT-29 cells were purchased from CLS Cell Line Service GmbH (Eppelheim, Germany) and cultured in Dulbecco's Modified Eagle Medium (DMEM) high glucose, GlutaMAX™ Supplement, pyruvate (Thermo Fisher Scientific, Paisley, UK) supplemented with 10% fetal bovine serum (FBS; Thermo Fisher Scientific), 200 U/mL penicillin, and 200 μg/ml streptomycin (Thermo Fisher Scientific), at 37° C. with 5% CO2 in a humidified incubator.
The CellTiter®-Blue Cell Viability assay was acquired from Promega Corporation (Madison, WI, USA). Cell viability assay was performed as follows: DLD-1 (4×10^3/well), HCT116 (4×10^3/well), and HT-29 (7×10^3/well) were incubated with a concentration gradient of compound (Id) ranging from 0.01 to 20 μM, in 96-well plates for 48 h at 37° C. Subsequently, 20 μl CellTiter®-Blue Cell Viability reagent was added to each well and incubated for an additional 2 h for the development of fluorescence. The fluorescence emission was measured at 590 nm using a SpectraMax® i3× Multi-Mode microplate reader (Molecular Devices, LLC, San Jose, CA, USA) and plotted against drug concentrations to determine the mean inhibitory concentration of compound (Id) producing 50% decrease in cell viability (IC50). Experiments were performed in triplicates.

[7] = tested on: Kasumi-1; assay: CellTiter-Blue cell viability assay, Kasumi-1; assay type: cell-based, human; conditions: 48 h, mean of triplicates
Description: as §1, §2

[8] = Binding to mouse plasma proteins (equilibrium dialysis); assay type: in vitro ADME
Description: Binding to mouse plasma proteins was determined as follows. The equilibrium dialysis method for determining plasma protein binding was performed using 96-well dialyzer plates with molecular weight cutoff of 5K (Harvard Apparatus, Holliston, MA) and a dual-plate rotator set to maximum speed (Harvard Apparatus, Holliston, MA) located in a 37° C. incubator with a 10% CO2-atmospheric environment. Assays were run in triplicate. The test compound was added to CD-1 mouse plasma (Innovative Research, Novi, MI, sodium heparin added as anticoagulant; pH adjusted to 7.4 with 2N HCl on day of use) in DMSO (final DMSO concentration 0.4%) to give 10 μM final concentration. Drug/plasma mixture and buffer (Dulbecco's phosphate-buffered saline 1× without calcium and magnesium, Mediatech, Inc., Herndon, VA) were placed in their respective sides, wells were capped, and the plate was placed in the rotator and allowed to dialyze for 22 h. […] Concentrations of analyte from each side of the dialysis plate were determined by LC/MS/MS on a Waters Xevo TQ instrument as described above using positive electrospray ionization. […] The fraction unbound was calculated by dividing the drug concentration in the buffer side of the dialysis plate by the drug concentration in the plasma side.

| SMILES | Mouse Plasma Stability t1/2 [1] [h] | half-life at 1 μM ([1]; CD-1, mouse, plasma, pH 7.4, 37° C., read-out: Mouse Plasma Stability t1/2) [h] | IC50 ([2]; Homo sapiens, NB-4) [nM] | IC50 ([3]; Homo sapiens, K562) [nM] | IC50 ([4]; Homo sapiens, HL-60) [nM] | IC50 ([5]; Homo sapiens, KG-1a) [nM] | IC50 ([6]; 48 h) [nM] | IC50 ([6]; Homo sapiens, HT-29, 48 h) [nM] | IC50 ([7]; Homo sapiens, Kasumi 1) [nM] | fraction unbound at 22 h, 10 μM ([8]; CD-1, mouse, plasma, pH 7.4, equilibrium dialysis 22 h, read-out: Mouse PPB (% free)) | IC50 [2] [nM] | IC50 [3] [nM] | IC50 [4] [nM] | IC50 [5] [nM] | IC50 [7] [nM] | Mouse PPB (% free) ([8]; 10 μM, equilibrium dialysis 22 h) [%] |
| --- | --- | --- | --- | --- | --- | --- | --- | --- | --- | --- | --- | --- | --- | --- | --- | --- |
| CC1=N/C(=C\c2ccc(C)o2)C(=O)N1c1ccc(CC(=O)NCc2ccccc2)cc1 [Compound (Id), 2-Methyl-4-(5-methyl-2-furyl)methylene-1-[4-(benzylaminocarbonylmethyl)phenyl]-5-oxo-1H-imidazole] | >5 | > 5 | 189 | 437 | 443 | 488 | 1340 | 1340 | 221 | 0.032 | – | – | – | – | – | – |
| COc1ccc(/C=C2\N=C(C)N(c3ccc(CC(=O)NCc4ccccc4)cc3)C2=O)cc1 [KIM-161, reference compound] | >5 | – | – | – | – | – | 1840 | – | – | – | 148 | 282 | 238 | 283 | 166 | 5 |
